What all share (assay): inhibition of tumour cell growth, NCI panel, 48 h
In assay [1] the test system is OVCAR-4 ovarian.
The test system of assay [2] is EKVX NSCLC.
For assay [3], the system named is SK-OV-3 ovarian.
The subject of assay [4] is UACC-257 melanoma.
Assay [5] deals with HOP-62 NSCLC.
In assay [6] the test system is RXF 393 renal.
Assay [7] relates to SNB-19 CNS.
For assay [8], the system named is MOLT-4 leukemia.

Among the data in PubChem BioAssay (NCI) are TGI values, retold here.

SMILES strings stand for the structures.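 All cell lines were grown in 96-well plates and treated with compound for 48 hours. At the TGI there is no net growth.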

As for `CC(C)(C)C1(COC(=O)c2ccc(N)cc2)COC1`, the TGI in assay [1], in assay [2], in assay [3], in assay [4], in assay [5] and in assay [6] was above 100 µM throughout. In addition, the TGI in assay [7] and in assay [8] was above 100 µM throughout.
`Cc1cn(CC2=NCC(C)(C)N2)c(=O)[nH]c1=O`: the TGI in assay [2], in assay [3], in assay [4], in assay [5], in assay [6] and in assay [7] was above 100 µM throughout. In assay [8], this compound showed a TGI above 100 µM.
As to `CC[C@H](C)[C@H]1NC(=O)[C@@H](NC(=O)[C@@H](CC(C)C)N(C)CC2CCCN2C(=O)C(C)=O)[C@@H](C)OC(=O)[C@H](Cc2ccc(OC)cc2)N(C)C(=O)C2CCCN2C(=O)[C@H](CC(C)C)NC(=O)[C@@H](C)C(=O)[C@H](C(C)C)OC(=O)C[C@@H]1O` (stereo partly drawn), the TGI in assay [1] stood at 0.00687 µM; in assay [2], 0.0509 µM; in assay [3] it was 0.0194 µM; in assay [4] it was 0.0128 µM; in assay [5], 0.00713 µM; in assay [6], 0.00299 µM. In addition, the TGI in assay [7] is 0.0115 µM; in assay [8], 0.00608 µM.
For `COc1cc(/C=C2\N=C(c3ccccc3)N(c3nc4c(OC)ccc(OC)c4s3)C2=O)cc(OC)c1OC`, the TGI in assay [1], in assay [2], in assay [3], in assay [4], in assay [5] and in assay [6] was above 100 µM each time. Further, the TGI in assay [7] and in assay [8] was above 100 µM in each case.
With `CCCNC(C#N)c1ccc(C(C#N)NCCC)cc1` (stereo not drawn), the TGI in assay [1], in assay [2], in assay [3], in assay [4], in assay [6] and in assay [7] was above 100 µM each time. Moreover, in assay [8], the TGI is above 100 µM.
Turning to `O=C1COc2ccc([N+](=O)[O-])cc2C(=O)C1`, the TGI in assay [1], in assay [2], in assay [3], in assay [4], in assay [5] and in assay [6] was above 10 µM each time. Further, the TGI in assay [7] and in assay [8] was above 10 µM in each case.
For `COc1cc(CC2c3cc(OC)c(OC)cc3CCN2C)c(Oc2cc3c(cc2OC)-c2c(O)c(OC)cc4c2C(C3)N(C)CC4)cc1OC` (stereo not drawn), the TGI in assay [1] was 90.7 µM; in assay [2], 53.1 µM; in assay [3], above 100 µM; in assay [4], 37.4 µM; in assay [5], above 100 µM; in assay [6] it was 9.35 µM. Also, the results for the TGI in assay [7] and in assay [8] were 57.4 µM and above 100 µM, respectively.
As to `CCCCCCCCCCCCCCCCCCNc1ccn(C2OC(COP(=O)(O)OCC3OC(n4cc(C)c(=O)[nH]c4=O)CC3N=[N+]=[N-])C(O)C2O)c(=O)n1` (stereo not drawn), the TGI in assay [1] is 83.9 µM; in assay [2], 48.5 µM; in assay [3], 40.3 µM; in assay [4], 76.3 µM; in assay [5], 45 µM; in assay [7] it was 59.7 µM. In assay [8], this compound showed a TGI of 44.4 µM.
Consider `CC(C)c1ccc(/C=C2\CSCC3=C2NC(=S)NC3c2ccc(C(C)C)cc2)cc1` (stereo not drawn), for which the TGI in assay [1], in assay [2], in assay [3], in assay [4], in assay [5] and in assay [6] was above 100 µM each time. Further, the TGI in assay [7] and in assay [8] was above 100 µM in each case.
Regarding `CCOC(=O)CNC(=O)C(C)NC(=O)C(NC(=O)CC(c1ncc[nH]1)c1ncc[nH]1)C(C)CC` (stereo not drawn), the TGI in assay [1], in assay [2], in assay [3], in assay [4], in assay [7] and in assay [8] was above 100 µM each time.
Take `O=c1[nH]c(=O)n(Cc2ccccc2CO)cc1Sc1ccccc1`: the TGI in assay [1] is above 100 µM; in assay [2], 60.8 µM; in assay [3] it was above 100 µM; in assay [4], 72.4 µM; in assay [5], above 100 µM; in assay [6], 80.9 µM. For the same compound, the TGI in assay [7] and in assay [8] was above 100 µM in each case.
Take `O=C1/C(=C/c2ccccc2[N+](=O)[O-])N=C(c2ccccc2)N1C1Nc2cc3c(cc2S1)NC(N1C(=O)/C(=C/c2ccccc2[N+](=O)[O-])N=C1c1ccccc1)S3` (stereo not drawn): the TGI in assay [1], in assay [2], in assay [4], in assay [5], in assay [6] and in assay [8] was above 100 µM throughout.
For the compound `Oc1[nH]c2ccccc2c1N=Nc1nc(-c2ccc(Cl)c(Cl)c2)cs1`, the TGI in assay [1], in assay [2], in assay [3], in assay [4], in assay [5] and in assay [7] was above 100 µM throughout. The TGI in assay [8] is above 100 µM.
For `Cc1cc(-c2nc3ccccc3s2)ccc1NC(=O)[C@H](C)N`, the TGI is 26.2 µM in assay [1]; 28.5 µM in assay [3]; 33.2 µM in assay [4]; 28.3 µM in assay [5]; 25.4 µM in assay [6]; 28.7 µM in assay [7]. This compound returned a TGI in assay [8] of 37.8 µM.
Turning to `CCOc1nc(-c2ccccc2)cc(-c2ccc(N3CCOCC3)cc2)c1C#N`, the TGI in assay [1], in assay [2], in assay [4], in assay [5], in assay [6] and in assay [7] was above 100 µM each time. Further, the TGI in assay [8] is above 100 µM.
As to `CN(C)CCNC(=O)c1cccc2nc3c(nc12)-c1ccccc1C3=O`, the TGI in assay [1] is 58.2 µM; in assay [2], 48.6 µM; in assay [3], 97 µM; in assay [4], 34.6 µM; in assay [5] it was 16.6 µM; in assay [6], 34.4 µM. The TGI was 47.6 µM in assay [7] and 7.52 µM in assay [8].
